Patent US10517889B2, “Modulators of SMAD7 expression” (Ionis Pharmaceuticals, Inc., priority 2017, dated 2019)
Strand notation (5' to 3'): a small letter for the sugar, then the base; units joined by * are phosphorothioate-linked, units joined directly phosphodiester-linked; [ ] holds rarer units or linkages, { } end groups; capitals alone tell only the bases. e = 2'-O-(2-methoxyethyl) (MOE); [5mC] = 5-methylcytosine; d = 2'-deoxy (DNA)

Tested on: human SMAD7 mRNA
Experiment: Antisense inhibition of human SMAD7 mRNA expression in Hep3B cells by 5-10-5 MOE gapmers, single concentration, electroporation, RT-PCR (Example 1, Study 1 and 2)
Format: cell-based
Conditions: for % Inhibition of SMAD7 mRNA: electroporation with 15,000 nM antisense oligonucleotide (Study 2); for % Inhibition: Study 2, electroporation with 15,000 nM antisense oligonucleotide
Summary of the method: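 Readout is percent SMAD7 mRNA inhibition versus untreated cells, measured by qRT-PCR (RTS5062) and corrected for total RNA by RIBOGREEN. Oligonucleotide, 5,000 nM or 15,000 nM, was delivered by electroporation into Hep3B cells at 20,000 per well. RNA was collected about 24 h later.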

[1] = 5-10-5 MOE gapmers targeting SEQ ID NO: 1 and 2
[2] = electroporation, 15,000 nM antisense oligonucleotide (Study 2), 5-10-5 MOE gapmers targeting SEQ ID NO: 1 and 2
[3] = electroporation, 5,000 nM, approximately 24 hours, relative to untreated control cells, gapmers targeting SEQ ID NO: 1 and 2
[4] = electroporation, 15,000 nM, approximately 24 hours, relative to untreated control cells, gapmers targeting SEQ ID NO: 1 and 2

771728 (antisense eA*eA*e[5mC]*eT*eT*dT*dT*d[5mC]*dT*d[5mC]*d[5mC]*d[5mC]*d[5mC]*d[5mC]*dT*eT*eG*eG*eA*eA) [compound 771728]
% Inhibition of SMAD7 mRNA [1]: 7%
% inhibition of SMAD7 mRNA expression [2]: 1%

771729 (antisense eT*eG*e[5mC]*eT*e[5mC]*d[5mC]*dA*dG*d[5mC]*dT*d[5mC]*d[5mC]*dA*dG*dA*e[5mC]*e[5mC]*eT*eG*eG) [compound 771729]
% inhibition of SMAD7 mRNA expression [2]: 35%

771730 (antisense eA*eA*eT*eG*e[5mC]*d[5mC]*d[5mC]*d[5mC]*d[5mC]*dG*dG*d[5mC]*d[5mC]*dA*d[5mC]*eA*eG*e[5mC]*eA*eG) [compound 771730]
% inhibition of SMAD7 mRNA expression [2]: 27%

771731 (antisense eA*eA*eA*eA*e[5mC]*dT*dT*dT*dG*dT*dG*d[5mC]*d[5mC]*dT*dG*eT*eT*eT*e[5mC]*eA) [compound 771731]
% Inhibition [1]: 54%
% inhibition of SMAD7 mRNA expression [3]: 44%

771735 (antisense eT*eG*eG*eG*eT*d[5mC]*d[5mC]*d[5mC]*dT*d[5mC]*dA*dA*dG*dA*dG*e[5mC]*eT*e[5mC]*eA*e[5mC]) [compound 771735]
% Inhibition [1]: 38%

771736 (antisense eT*eG*e[5mC]*e[5mC]*eA*dG*dA*dT*d[5mC]*dT*d[5mC]*dA*dG*dG*dT*e[5mC]*eA*eA*eG*eA) [compound 771736]
% Inhibition of SMAD7 mRNA [1]: 34%
% inhibition of SMAD7 mRNA expression [2]: 0%

771738 (antisense eG*eA*eG*e[5mC]*eT*dT*d[5mC]*d[5mC]*dT*dA*dA*dG*dT*dA*d[5mC]*eT*eG*eT*eT*eA) [compound 771738]
% inhibition of SMAD7 mRNA expression [2]: 14%

771739 (antisense eT*eT*eT*eG*eA*dA*dA*dA*d[5mC]*d[5mC]*d[5mC]*dA*dA*d[5mC]*d[5mC]*e[5mC]*eT*eG*eG*eG) [compound 771739]
% Inhibition [1]: 33%
% inhibition of SMAD7 mRNA expression [3]: 22%

771740 (antisense eG*e[5mC]*e[5mC]*eA*e[5mC]*dT*d[5mC]*d[5mC]*dT*dG*dA*d[5mC]*dT*d[5mC]*dA*e[5mC]*eG*e[5mC]*eA*eA) [compound 771740]
% Inhibition [1]: 20%

771741 (antisense eG*eG*eT*e[5mC]*eT*d[5mC]*dA*d[5mC]*d[5mC]*dT*dT*dA*dG*dG*d[5mC]*e[5mC]*eT*eG*eT*eG) [compound 771741]
% inhibition of SMAD7 mRNA expression [4]: 53%

771743 (antisense eG*e[5mC]*e[5mC]*eA*eT*dA*d[5mC]*d[5mC]*dT*d[5mC]*d[5mC]*dA*dT*d[5mC]*dT*e[5mC]*eT*e[5mC]*eA*e[5mC]) [compound 771743]
% Inhibition [1]: 0%

771744 (antisense eG*eG*e[5mC]*eT*eA*dT*dT*d[5mC]*d[5mC]*d[5mC]*dA*dA*dG*dA*dG*eT*e[5mC]*e[5mC]*eA*eG) [compound 771744]
% Inhibition of SMAD7 mRNA [1]: 40%
% inhibition of SMAD7 mRNA expression [2]: 23%

771745 (antisense eG*eT*eG*eA*eA*dG*dA*dA*dG*d[5mC]*dA*dA*dA*dG*dT*eA*eT*eA*e[5mC]*e[5mC]) [compound 771745]
% inhibition of SMAD7 mRNA expression [2]: 24%

771746 (antisense eA*eA*eG*e[5mC]*e[5mC]*dG*dG*dG*d[5mC]*dA*dT*d[5mC]*dT*d[5mC]*dA*eG*eA*eG*e[5mC]*eA) [compound 771746]
% inhibition of SMAD7 mRNA expression [2]: 22%

771747 (antisense eG*eT*eG*eT*eG*dT*dT*dT*d[5mC]*dA*dA*dA*dG*dG*dA*eA*eA*eA*eG*e[5mC]) [compound 771747]
% Inhibition [1]: 10%
% inhibition of SMAD7 mRNA expression [3]: 2%

771748 (antisense eA*e[5mC]*e[5mC]*e[5mC]*e[5mC]*d[5mC]*dA*d[5mC]*dA*dT*dT*dA*dA*dA*d[5mC]*eA*eT*eA*eA*eT) [compound 771748]
% Inhibition [1]: 0%

771749 (antisense eG*eA*eA*eA*eT*dG*dG*dA*dG*dT*dT*dA*d[5mC]*dT*dT*eG*eT*eT*eA*eA) [compound 771749]
% inhibition of SMAD7 mRNA expression [4]: 29%

771750 (antisense eG*eG*eA*e[5mC]*eA*dA*d[5mC]*dT*dT*dT*dT*d[5mC]*dA*dA*dG*eA*eA*e[5mC]*eT*e[5mC]) [compound 771750]
% Inhibition [1]: 29%

771751 (antisense eT*eG*eG*e[5mC]*e[5mC]*dA*dT*dG*d[5mC]*dT*dG*dG*d[5mC]*dA*dA*eA*eT*eA*eG*eG) [compound 771751]
% Inhibition [1]: 25%

771752 (antisense eA*eA*eT*eG*eT*d[5mC]*d[5mC]*d[5mC]*dT*dG*dT*dG*dG*dG*dT*eT*eT*e[5mC]*e[5mC]*eA) [compound 771752]
% Inhibition of SMAD7 mRNA [1]: 3%
% inhibition of SMAD7 mRNA expression [2]: 0%

771753 (antisense eG*eT*e[5mC]*e[5mC]*eA*dT*dG*dA*dA*d[5mC]*d[5mC]*dA*d[5mC]*dA*dA*e[5mC]*eT*e[5mC]*eA*eT) [compound 771753]
% inhibition of SMAD7 mRNA expression [2]: 50%

771754 (antisense e[5mC]*e[5mC]*e[5mC]*eT*e[5mC]*dA*dG*dG*dT*dA*d[5mC]*dT*d[5mC]*dT*dG*e[5mC]*eA*e[5mC]*eA*eG) [compound 771754]
% inhibition of SMAD7 mRNA expression [2]: 45%

771755 (antisense eA*eA*eA*e[5mC]*eA*dT*dT*dT*dG*dG*d[5mC]*dA*d[5mC]*d[5mC]*d[5mC]*eA*eA*e[5mC]*eA*e[5mC]) [compound 771755]
% Inhibition [1]: 35%
% inhibition of SMAD7 mRNA expression [3]: 44%

771756 (antisense e[5mC]*e[5mC]*eA*eG*eG*d[5mC]*dA*dA*d[5mC]*d[5mC]*d[5mC]*d[5mC]*dA*dG*dA*e[5mC]*e[5mC]*eT*eG*e[5mC]) [compound 771756]
% Inhibition [1]: 11%

771757 (antisense eT*e[5mC]*e[5mC]*e[5mC]*e[5mC]*dT*dT*dT*dT*dT*dT*dA*dA*dT*dT*eG*eA*eG*eG*eA) [compound 771757]
% inhibition of SMAD7 mRNA expression [4]: 48%

771758 (antisense eA*eT*eT*eA*e[5mC]*d[5mC]*dA*dG*dT*d[5mC]*d[5mC]*d[5mC]*d[5mC]*d[5mC]*dA*eT*eT*eA*e[5mC]*eG) [compound 771758]
% Inhibition [1]: 0%

771759 (antisense eG*e[5mC]*eA*eT*eT*dA*d[5mC]*d[5mC]*dA*dG*dT*d[5mC]*d[5mC]*d[5mC]*d[5mC]*e[5mC]*eA*eT*eT*eA) [compound 771759]
% Inhibition [1]: 26%

771760 (antisense eA*eT*e[5mC]*eT*eT*dA*d[5mC]*d[5mC]*dT*dG*dA*dA*dA*dG*d[5mC]*e[5mC]*e[5mC]*e[5mC]*e[5mC]*e[5mC]) [compound 771760]
% Inhibition of SMAD7 mRNA [1]: 25%
% inhibition of SMAD7 mRNA expression [2]: 3%

771761 (antisense e[5mC]*e[5mC]*e[5mC]*e[5mC]*eA*dT*dT*d[5mC]*d[5mC]*dT*d[5mC]*d[5mC]*dA*dG*dT*e[5mC]*eT*eT*eT*eA) [compound 771761]
% inhibition of SMAD7 mRNA expression [2]: 33%

771763 (antisense e[5mC]*e[5mC]*e[5mC]*e[5mC]*eG*dT*d[5mC]*d[5mC]*dA*d[5mC]*dG*dG*dA*dA*d[5mC]*eG*eG*eA*eT*e[5mC]) [compound 771763]
% Inhibition [1]: 45%
% inhibition of SMAD7 mRNA expression [3]: 34%

771764 (antisense eA*e[5mC]*eA*e[5mC]*eT*dT*d[5mC]*dA*d[5mC]*dA*d[5mC]*dA*d[5mC]*d[5mC]*dA*eA*eA*eG*e[5mC]*eA) [compound 771764]
% Inhibition [1]: 20%

771765 (antisense e[5mC]*e[5mC]*eA*eA*eG*d[5mC]*d[5mC]*dA*dG*dG*dA*dG*d[5mC]*dT*dG*e[5mC]*eT*eT*eA*eA) [compound 771765]
% inhibition of SMAD7 mRNA expression [4]: 48%

771766 (antisense e[5mC]*eT*eG*eA*eA*dG*d[5mC]*d[5mC]*d[5mC]*d[5mC]*d[5mC]*d[5mC]*dA*dA*dG*e[5mC]*e[5mC]*eA*eG*eG) [compound 771766]
% Inhibition [1]: 5%

771767 (antisense e[5mC]*e[5mC]*eT*eA*eA*dA*dG*dG*dT*dG*dG*dG*dT*d[5mC]*d[5mC]*eA*eT*eT*e[5mC]*e[5mC]) [compound 771767]
% Inhibition [1]: 16%

771768 (antisense eG*eT*eA*eT*eG*d[5mC]*dT*dT*dG*dG*dG*dA*dT*d[5mC]*dT*eG*eT*e[5mC]*eT*eT) [compound 771768]
% Inhibition of SMAD7 mRNA [1]: 24%
% inhibition of SMAD7 mRNA expression [2]: 11%

771771 (antisense e[5mC]*eA*eG*e[5mC]*eT*d[5mC]*d[5mC]*dT*dA*d[5mC]*dT*dG*dT*dT*dG*eG*e[5mC]*eA*eG*eT) [compound 771771]
% Inhibition [1]: 22%
% inhibition of SMAD7 mRNA expression [3]: 63%

771772 (antisense eT*e[5mC]*e[5mC]*eT*e[5mC]*dA*dG*dG*dA*dA*d[5mC]*dA*dA*d[5mC]*dA*eA*eT*eG*e[5mC]*eT) [compound 771772]
% Inhibition [1]: 27%

771774 (antisense eG*eA*eA*eA*eA*dA*d[5mC]*dA*dG*dG*dT*dA*dG*dA*dA*eA*eT*eA*eG*eG) [compound 771774]
% Inhibition [1]: 14%

771775 (antisense eA*eA*eT*eG*e[5mC]*d[5mC]*dA*dA*dA*dT*dG*d[5mC]*d[5mC]*d[5mC]*dA*eA*eA*eA*e[5mC]*eT) [compound 771775]
% Inhibition [1]: 41%
